Measurements published in patent publication US11613780B2, “Materials and methods for identifying gyrase inhibitors” (THE FLORIDA INTERNATIONAL UNIVERSITY BOARD OF TRUSTEES, priority 2016, dated 2023).
Entries after “also recorded” stand apart in the source; their conditions may differ.

Key:
[1] = system: expression of firefly luciferase under the control of the PgyrA (screen for DNA gyrase inhibitors); assay: Firefly luciferase expression from PgyrA divergently coupled to IPTG-induced PT7Al/O4 (luciferase assay); type: cell-based, E. coli; conditions: for expression of firefly luciferase (other antibiotics): FIG. 12F, antibiotics that are not gyrase inhibitors; for expression of firefly luciferase of FL #1181: FL #1181, in the presence of IPTG, FIG. 12E
Experimental: (§1) FIGS. 5A-5D. (FIG. 5A) and (FIG. 5B) Inhibition of the supercoiling-sensitive PgyrA by E. coli […] on the chromosome. E. coli strains FL1181 (MG1655(DE3)ΔlacZ attTn7::PT7Al/O4lacZ-PgyrAluc; squares) and FL1182 (VS111(DE3)ΔlacZ attTn7::PT7Al/O4lacZ-PgyrAluc; circles) were used. The activities of β-galactosidase (Miller's units) and firefly luciferase (RLU) were plotted against the IPTG concentration added to the cell cultures. […] Overnight cell cultures were diluted 100-fold and grown until OD600 reached 0.2. Then 0.5 mM of IPTG and various concentrations of ciprofloxacin or other antibiotics were added to the cell cultures. After additional 30 min incubation, the activities of β-galactosidase and firefly luciferase were measured as described under Materials and Methods. (FIG. 5C) Ciprofloxacin inhibited the expression of β-galactosidase.
Briefly, a 5.1 kb DNA fragment carrying the divergently coupled PgyrA and PT7Al/O4 promoters with the luc and lacZ genes was inserted to the attTn7 site of the E. coli chromosome (84 min of the chromosome) to generate FL1181 and FL1182. In both strains, the IPTG-inducible PT7Al/O4 controls the expression of β-galactosidase. Using similar approach, the following E. coli strains were generated: FL1181, FL1182, FL1198, FL1199, FL1200, FL1202, FL1203, and FL1204.
Luciferase Assay was used to verify the expression of luciferase in various E. coli strains carrying different plasmid DNA templates. Briefly, E. coli cells carrying different plasmids were grown overnight in LB. Antibiotics were added to LB as needed. The overnight culture was then diluted (1:100) in fresh LB in the presence of different concentrations of IPTG, and grown until the OD600 nm reached approximately 0.5. Next, 50 μl of cells were mixed with 10 μl of 1 M K2HPO4 (pH 7.8) and 20 mM EDTA, quickly frozen in liquid nitrogen for 3 min, and equilibrated to room temperature for 30 min to yield about 60 μl of cell lysate. Then, the cell lysate was added with 300 μl freshly prepared lysis mix containing 1×cell culture lysis reagent (CCLR), 1.25 mg/ml lysozyme, and 2.5 mg/ml BSA, and incubated for 10 min at room temperature. Finally, 100 μl of Luciferase Assay Reagent (Promega Corporation, Madison, Wis.) was added to 20 μl of the cell lysate and used for light measurement by using a Promega GloMax 20/20 Single-Tube Luminometer.

[2] = system: expression of β-galactosidase (lacZ) under the control of PT7Al/O4; assay: β-galactosidase expression from PT7Al/O4 (Miller's assay); type: cell-based, E. coli; conditions: FL1181 and FL1182, 0.5 mM IPTG, 30 min incubation; FIG. 5C
Experimental: as §1, with “β-galactosidase. […]” for “β-galactosidase.”
The expression level of β-galactosidase was measured by Miller's assay as described by Miller et al. Briefly, 100 mL of LB was inoculated with 1 mL of overnight bacterial cell culture until OD600 reaches about 0.2. […] After cell debris was removed by centrifugation at 13,000 rpm for 1 min, OD420 and OD550 were measured in a Cary 50 spectrophotometer. β-Galactosidase activities (E) were calculated using the following equation: […]

Compound | expression of firefly luciferase (other antibiotics) [1] | expression of β-galactosidase [2] | expression of firefly luciferase ([1]; E. coli strains FL1181 and FL1182 (divergently coupled PgyrA and PT7Al/O4), in the presence of IPTG (0.5 mM), 30 min incubation, FIG. 5D) | expression of firefly luciferase of FL #1181 [1]
CC1(C)S[C@@H]2[C@H](NC(=O)[C@H](N)c3ccccc3)C(=O)N2[C@H]1C(=O)O [ampicillin] | inhibited; also recorded: inhibition | – | – | –
O=C(O)c1cn(C2CC2)c2cc(N3CCNCC3)c(F)cc2c1=O [ciprofloxacin] | – | inhibited | substantially increased; also recorded: greatly enhanced; also recorded: specifically enhanced | stimulation
CCN1CCN(c2cc3c(cc2F)c(=O)c(C(=O)O)cn3C2CC2)CC1 [enrofloxacin] | – | – | – | stimulation
CCn1cc(C(=O)O)c(=O)c2cc(F)c(N3CCNCC3)cc21 [norfloxacin] | – | – | – | stimulation
CN[C@@H]1[C@H](O)[C@H](NC)[C@H]2O[C@@]3(O)C(=O)C[C@@H](C)O[C@H]3O[C@@H]2[C@H]1O [spectinomycin] | inhibition | – | – | –
